assay: recombinant barcode read abundance after kanamycin selection (control-corrected) (log10(CPM+1)); higher = more efficient recombination; sequences stand for … in AGTGCAGAGAAAATCGGCCAGTTTTCTCTGCCTGCAGTCCGCATGCCGT…AGATTTATGCAGCGGACTGCCTTTCTCCCAAAGTGATAAACCGGACAGTATCATGGACCGGTTTTCCCGGTAATCCGTATTTGCAAGGTTGGTTTCACT; site = the 11-nt target
In short: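 Each value is log10(CPM+1). It describes recombination efficiency, taken as averaged, control-corrected counts per million of barcodes at recombinant junctions. The pooled E. coli library paired targets with IS621 bridge RNA target-binding loops, was co-electroporated with a donor plasmid, and was plated twice on chloramphenicol/ampicillin LB agar (control) and twice on chloramphenicol/ampicillin/kanamycin containing 0.1 mM IPTG.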
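Note: IS621 recombinase and bridge RNA in Escherichia coli cells.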

Going from “AGGGAGACTTGGGTTCTAACCTGTTGCTT (site AGGGAGACTAA)” to “AGGGAGACTTGGGTTCTAACCTGTTGCTT (site AGGGATACTAA)”, the “recombinant barcode read abundance (log10)” value falls from 2.39 to 0.25.

Compared with “AGGGCCTCTTGGGTTCTAACCTGTTGCAG (site AGGGCCTCTCT)”, “AGGGCCTCTTGGGTTCTAACCTGTTGCAG (site GGGGCCTCTTT)” is lower in “recombinant barcode read abundance (log10)” value: 2.73 for the first, 0.118 for the second.

Going from “AGGGCGCCTTGGGTTCTAACCTGTTGCTT (site AGGGCGCCTAA)” to “AGGGCGCCTTGGGTTCTAACCTGTTGCTT (site CATTTAGCTCC)”, the “recombinant barcode read abundance (log10)” value falls from 1.18 to 0.822.

Going from “AGGGGAGCTTGGGTTCTAACCTGTTGCCT (site AGGGAAGCTAG)” to “AGGGGAGCTTGGGTTCTAACCTGTTGCCT (site AGGGCAGCTAG)”, the “recombinant barcode read abundance (log10)” value falls from 1.12 to 0.109.

First: AGGGGAGCTTGGGTTCTAACCTGTTGCCT (site AGGGGAGCTAG)
Second: AGGGGAGCTTGGGTTCTAACCTGTTGCCT (site AGGGTAGCTAG)
The “recombinant barcode read abundance (log10)” value of the first is higher: 1.61 for the first, 0.315 for the second.

Going from “AGGTAGACTTGGGTTCTAACCTGTTGCTA (site AGGTAGACTTA)” to “AGGTAGACTTGGGTTCTAACCTGTTGCTA (site GGGTACACTTA)”, the “recombinant barcode read abundance (log10)” value falls from 2.44 to 0.303.

First: AGGTCACCTTGGGTTCTAACCTGTTGCAT (site AGGTCACCTAA)
Second: AGGTCACCTTGGGTTCTAACCTGTTGCAT (site AGGTCACCTAC)
The “recombinant barcode read abundance (log10)” value of the first is lower: 0.129 for the first, 0.62 for the second.

First: AGGTCACCTTGGGTTCTAACCTGTTGCAT (site AGGTCACCTAG)
Second: AGGTCACCTTGGGTTCTAACCTGTTGCAT (site AGGTCACCTAT)
The “recombinant barcode read abundance (log10)” value of the first is lower: 0.128 for the first, 2.12 for the second.

Compared with “AGGTCCTCTTGGGTTCTAACCTGTTGCTT (site AGGTCCTCTAA)”, “AGGTCCTCTTGGGTTCTAACCTGTTGCTT (site AGGTCCTCTAC)” is lower in “recombinant barcode read abundance (log10)” value: 1.13 for the first, 0.715 for the second.

Compared with “AGGTCCTCTTGGGTTCTAACCTGTTGCTT (site AGGTCCTCTAG)”, “AGGTCCTCTTGGGTTCTAACCTGTTGCTT (site AGGTCCTCTAT)” is higher in “recombinant barcode read abundance (log10)” value: 0.954 for the first, 1.2 for the second.

First: AGGTCGGCTTGGGTTCTAACCTGTTGCCT (site AGATCGGCTAG)
Second: AGGTCGGCTTGGGTTCTAACCTGTTGCCT (site AGGTCGGCTAG)
The “recombinant barcode read abundance (log10)” value of the first is lower: 0.329 for the first, 1.24 for the second.

“AGGTCGTCTTGGGTTCTAACCTGTTGCCT (site AAGTCGTCTAG)” and “AGGTCGTCTTGGGTTCTAACCTGTTGCCT (site ACGTCGTCTAG)” are within 0.2 log units of each other in “recombinant barcode read abundance (log10)” value: 0 for the first, 0.146 for the second.

First: AGGTCGTCTTGGGTTCTAACCTGTTGCCT (site AGGTCGTCTAG)
Second: AGGTCGTCTTGGGTTCTAACCTGTTGCCT (site ATGTCGTCTAG)
The “recombinant barcode read abundance (log10)” value of the first is higher: 1.74 for the first, 0.0512 for the second.

Going from “AGGTGCCCTTGGGTTCTAACCTGTTGCCG (site AAGTGCTCTCG)” to “AGGTGCCCTTGGGTTCTAACCTGTTGCCG (site AGGTGCCCTCG)”, the “recombinant barcode read abundance (log10)” value rises from 0.235 to 1.15.

First: AGGTGTTCTTGGGTTCTAACCTGTTGCCT (site AGGTGTTCTAG)
Second: AGGTGTTCTTGGGTTCTAACCTGTTGCCT (site ATGCGTTCTAG)
The “recombinant barcode read abundance (log10)” value of the first is higher: 0.716 for the first, 0.018 for the second.

“AGTAAGACTTGGGTTCTAACCTGTTGCCT (site AGTAAGACTAA)” and “AGTAAGACTTGGGTTCTAACCTGTTGCCT (site AGTAAGACTAC)” are within 0.2 log units of each other in “recombinant barcode read abundance (log10)” value: 0.132 for the first, 0.16 for the second.

Going from “AGTAAGACTTGGGTTCTAACCTGTTGCCT (site AGTAAGACTAG)” to “AGTAAGACTTGGGTTCTAACCTGTTGCCT (site AGTAAGACTAT)”, the “recombinant barcode read abundance (log10)” value falls from 1.69 to 0.2.

First: AGTAAGACTTGGGTTCTAACCTGTTGCTA (site ACTAAGACTCA)
Second: AGTAAGACTTGGGTTCTAACCTGTTGCTA (site AGTAAGACTTA)
The “recombinant barcode read abundance (log10)” value of the first is lower: 0.154 for the first, 1.23 for the second.

“AGTAAGTCTTGGGTTCTAACCTGTTGCCT (site AATAAGTCTAG)” and “AGTAAGTCTTGGGTTCTAACCTGTTGCCT (site ACTAAGTCTAG)” are within 0.2 log units of each other in “recombinant barcode read abundance (log10)” value: 0.0805 for the first, 0.186 for the second.

First: AGTAAGTCTTGGGTTCTAACCTGTTGCCT (site AGTAAGTCTAG)
Second: AGTAAGTCTTGGGTTCTAACCTGTTGCCT (site ATTAAGTCTAG)
The “recombinant barcode read abundance (log10)” value of the first is higher: 0.61 for the first, 0.0108 for the second.

“AGTAATTCTTGGGTTCTAACCTGTTGCCT (site AGAAATTCTAG)” and “AGTAATTCTTGGGTTCTAACCTGTTGCCT (site AGCAATTCTAG)” are within 0.2 log units of each other in “recombinant barcode read abundance (log10)” value: 0.0418 for the first, 0.0536 for the second.

Compared with “AGTAATTCTTGGGTTCTAACCTGTTGCCT (site AGGAATTCTAG)”, “AGTAATTCTTGGGTTCTAACCTGTTGCCT (site AGTAATTCTAG)” is higher in “recombinant barcode read abundance (log10)” value: 0.0166 for the first, 0.454 for the second.

“AGTACCTCTTGGGTTCTAACCTGTTGCCT (site AATACCTCTAG)” and “AGTACCTCTTGGGTTCTAACCTGTTGCCT (site ACTACCTCTAG)” are within 0.2 log units of each other in “recombinant barcode read abundance (log10)” value: 0.192 for the first, 0.283 for the second.

Going from “AGTACCTCTTGGGTTCTAACCTGTTGCCT (site AGTACCTCTAG)” to “AGTACCTCTTGGGTTCTAACCTGTTGCCT (site ATTACCTCTAG)”, the “recombinant barcode read abundance (log10)” value falls from 0.941 to 0.0826.

Compared with “AGTAGACCTTGGGTTCTAACCTGTTGCTT (site AGTAGACCTAA)”, “AGTAGACCTTGGGTTCTAACCTGTTGCTT (site AGTATACCTCA)” is lower in “recombinant barcode read abundance (log10)” value: 0.828 for the first, 0.0353 for the second.

Going from “AGTATACCTTGGGTTCTAACCTGTTGCTG (site AGTAGACCTAA)” to “AGTATACCTTGGGTTCTAACCTGTTGCTG (site AGTATACCTCA)”, the “recombinant barcode read abundance (log10)” value rises from 0.178 to 1.31.

Compared with “AGTCAGACTTGGGTTCTAACCTGTTGCAC (site AGTCAGACTGT)”, “AGTCAGACTTGGGTTCTAACCTGTTGCAC (site CTAAGCGCTAG)” is lower in “recombinant barcode read abundance (log10)” value: 1.19 for the first, 0.396 for the second.

Going from “AGTCAGCCTTGGGTTCTAACCTGTTGCCT (site AGTAAGCCTAG)” to “AGTCAGCCTTGGGTTCTAACCTGTTGCCT (site AGTCAGCCTAG)”, the “recombinant barcode read abundance (log10)” value rises from 0.0129 to 0.749.

“AGTCAGCCTTGGGTTCTAACCTGTTGCCT (site AGTGAGCCTAG)” and “AGTCAGCCTTGGGTTCTAACCTGTTGCCT (site AGTTAGCCTAG)” are within 0.2 log units of each other in “recombinant barcode read abundance (log10)” value: 0.318 for the first, 0.133 for the second.

“AGTCAGTCTTGGGTTCTAACCTGTTGCCA (site AGTCAGTCTTG)” and “AGTCAGTCTTGGGTTCTAACCTGTTGCCA (site AGTTAGTCTTG)” are within 0.2 log units of each other in “recombinant barcode read abundance (log10)” value: 0.0748 for the first, 0.121 for the second.

Going from “AGTCATACTTGGGTTCTAACCTGTTGCAT (site AGTCATACTAT)” to “AGTCATACTTGGGTTCTAACCTGTTGCAT (site AGTCATCCTAG)”, the “recombinant barcode read abundance (log10)” value falls from 0.356 to 0.0486.

First: AGTCATACTTGGGTTCTAACCTGTTGCCA (site AGTCATACTTG)
Second: AGTCATACTTGGGTTCTAACCTGTTGCCA (site GACGTGTCTAC)
The “recombinant barcode read abundance (log10)” value of the first is higher: 0.355 for the first, 0.0524 for the second.

First: AGTCCTTCTTGGGTTCTAACCTGTTGCAT (site AGTCCTTCTAT)
Second: AGTCCTTCTTGGGTTCTAACCTGTTGCAT (site CGTCCTTCTAG)
The “recombinant barcode read abundance (log10)” value of the first is higher: 0.878 for the first, 0.0721 for the second.

Going from “AGTCTACCTTGGGTTCTAACCTGTTGCCT (site AGTCTACCTAG)” to “AGTCTACCTTGGGTTCTAACCTGTTGCCT (site CGTCTACCTAG)”, the “recombinant barcode read abundance (log10)” value falls from 1.23 to 0.0985.

Going from “AGTCTAGCTTGGGTTCTAACCTGTTGCCG (site AGTCTAGCTAG)” to “AGTCTAGCTTGGGTTCTAACCTGTTGCCG (site AGTCTAGCTCG)”, the “recombinant barcode read abundance (log10)” value rises from 0.083 to 0.67.

Going from “AGTCTAGCTTGGGTTCTAACCTGTTGCCG (site AGTCTAGCTGG)” to “AGTCTAGCTTGGGTTCTAACCTGTTGCCG (site AGTCTAGCTTG)”, the “recombinant barcode read abundance (log10)” value rises from 0.0274 to 0.641.

First: AGTCTCCCTTGGGTTCTAACCTGTTGCCT (site AGACTCCCTAG)
Second: AGTCTCCCTTGGGTTCTAACCTGTTGCCT (site AGCCTCCCTAG)
The “recombinant barcode read abundance (log10)” value of the first is higher: 0.372 for the first, 0.0404 for the second.

Compared with “AGTCTCCCTTGGGTTCTAACCTGTTGCCT (site AGGCTCCCTAG)”, “AGTCTCCCTTGGGTTCTAACCTGTTGCCT (site AGTCTCCCTAG)” is higher in “recombinant barcode read abundance (log10)” value: 0.0232 for the first, 1.56 for the second.

Going from “AGTCTCTCTTGGGTTCTAACCTGTTGCCG (site AGTCTCTCTCG)” to “AGTCTCTCTTGGGTTCTAACCTGTTGCCG (site AGTCTCTCTTA)”, the “recombinant barcode read abundance (log10)” value falls from 0.357 to 0.0569.

First: AGTGCGGCTTGGGTTCTAACCTGTTGCCT (site AGTGCGGCTAG)
Second: AGTGCGGCTTGGGTTCTAACCTGTTGCCT (site CGTGCGGCTAG)
The “recombinant barcode read abundance (log10)” value of the first is higher: 0.685 for the first, 0.231 for the second.

“AGTGCGGCTTGGGTTCTAACCTGTTGCCT (site GGTGCGGCTAG)” and “AGTGCGGCTTGGGTTCTAACCTGTTGCCT (site TGTGCGGCTAG)” are within 0.2 log units of each other in “recombinant barcode read abundance (log10)” value: 0.0363 for the first, 0.143 for the second.

Going from “AGTTAACCTTGGGTTCTAACCTGTTGCGG (site ACTTGACCTCC)” to “AGTTAACCTTGGGTTCTAACCTGTTGCGG (site AGTTAACCTCC)”, the “recombinant barcode read abundance (log10)” value rises from 0.0373 to 1.97.

Going from “AGTTACACTTGGGTTCTAACCTGTTGCCT (site AGTTACACTAG)” to “AGTTACACTTGGGTTCTAACCTGTTGCCT (site AGTTCCACTAG)”, the “recombinant barcode read abundance (log10)” value falls from 0.637 to 0.0139.

Source: the supplement of paper PMC11208160
